According to US7977369B2, “Medical compositions for intravesical treatment of bladder cancer” (Spectrum Pharmaceuticals, Inc., priority 2001, dated 2011):
Converted amounts (≈) assume the structure as drawn. Read-outs that look alike come from different tables or passages of the source.

Tests used:
[1] = tested on: NQ01 rich and deficient tumors; conditions: intratumoural administration; cited from earlier work
H460 cells = assay: Response of H460 cells to EO9 in the presence or absence of FAA (2 mM); type: cell-based, human; conditions: for IC50: Homo sapiens, NCI-H460, H460 cells
Procedure: Briefly, H460 cells (NQO1 rich) were plated into 96 well plates at a density of 2×10^3 cells per well. Following an overnight incubation at 37° C., medium was replaced with fresh medium (pH 7.4) containing a non-toxic concentration of FAA (2 mM) and incubated for one hour at 37° C. Medium was then replaced with fresh medium containing EO9 (range of drug concentrations) and FAA (2 mM) at either pHe 7.4 or 6.0. Following a further one hour incubation at 37° C., cells were washed twice with HBSS and incubated at 37° C. in growth medium for five days. Chemosensitivity was determined by the NM assay as described above and results were expressed in terms of IC50 values, selectivity ratios (IC50 at pHe 7.4/IC50 at pHe 6.0) and protection ratios (ICSO FAA/EO9 combinations/IC50 for EO9 alone).

[2] = phase I clinical trials; cited from earlier work
[3] = in humans; cited from earlier work
[4] = Stability of EO9 at acidic pH; conditions: buffer
[5] = tested on: HT-29 multicell spheroids; assay: Chemosensitivity of HT-29 multicell spheroids; type: cell-based, human; conditions: for IC50: Homo sapiens, HT-29, 1 h, spheroids
Procedure: HT-29 multicell spheroids were prepared by seeding 5×10^5 cells into T25 flasks which had been based coated with agar (1% w/v) and incubated for 24 h at 37° C. Immature spheroids were then transferred to a spinner flask (Techne) containing 250 ml of RPMI 1640 growth medium and spheroids were kept in suspension by stirring at 50 rpm. When spheroids reached a diameter of approximately 500 Am, they were harvested for chemosensitivity studies. Multicell spheroids were exposed to a range of EO9 concentrations at pHe 6.0 and 7.4 for one hour at 37° C. Following drug incubation, spheroids were washed twice in HBSS prior to dissagregation into single cells using trypsin EDTA. Disaggregated spheroids were then washed in HBSS and then plated into 96 well plates (1×10^3 cells per well) and incubated at 37° C. for four days. Chemosensitivity was assessed using the NM assay as described elsewhere (Phillips et al, 1992).

[6] = Solubility of EO9 in formulation vehicle and water
[7] = tested on: NSCLC, gastric, breast, pancreatic and colon cancers; conditions: phase II trials; cited from earlier work
EJ138 = assay: Chemosensitivity, one hour drug exposure, MTT assay, monolayer; type: cell-based, human
Description: (§1) Cell culture and chemosensitivity studies. […] H460 (human NSCLC) cell line was obtained from the American Type Culture Collection (ATCC). HT-29 (human colon carcinoma), RT112/83 (human bladder carcinoma epithelial), EJ138 (human bladder carcinoma) and T24/83 (human bladder transitional cell carcinoma) cell lines were obtained from the European Collection of Animal Cell Cultures (ECACC). A2780 (human ovarian carcinoma) and BE (human colon carcinoma) cells were gifts from Dr T Ward (Paterson Institute, Manchester, UK). All cell lines were maintained as monolayer cultures in RPNII 1640 culture medium supplemented with fetal calf serum (10%), sodium pyruvate (2 mM), L-glutamine (2 mM), penicillin/streptomycin (50 IU/ml/50 jug/ml) and buffered with HEPES (25 mK). All cell culture materials were purchased from Gibco BRL (Paisley, UK). […] Calibration curves were conducted over a broad range of pH values in culture medium (pH 3.5 to 11) and the stability of the pH conditions monitored over a one hour incubation period at 37° C.

RT112 = assay: as above; type: cell-based, human
Description: as §1

H460 = assay: as above; type: cell-based, human
Description: as §1

BE = assay: as above; type: cell-based, human
Description: as §1

A2780 = assay: as above; type: cell-based, human
Description: as §1

T24/83 = assay: as above; type: cell-based, human
Description: as §1

HT-29 = assay: as above; type: cell-based, human
Description: as §1

recombinant human NQO1 = target: T1, recombinant human NQO1 (Homo sapiens, UniProt P15559); assay: Substrate specificity: reduction of EO9 by NQO1, cytochrome c reporter; type: biochemical
T1 construct: made in house; host or cells: E. coli (pKK233-2 plasmid, IPTG induction)
Procedure: Substrate specificity. The influence of acidic pHe on substrate specificity for purified human NQ01 was determined as described previously (Phillips 1996, Walton et al, 1991). NQ01 mediated reduction of the quinone to the hydroquinone species is difficult to detect by conventional assays thereby necessitating the use of a reporter signal generating step. In this assay, the hydroquinone acts as an intermediate electron acceptor which subsequently reduces cytochrome c which can readily be detected spectrophotometrically. Recombinant human NQ01 was derived from E. coli transformed with the pKK233-2 expression plasmid containing the full length cDNA sequence for human NQ01 isolated from the (Beall et al, 1994). Following IPTG induction, NQO1 was purified by cybacron blue affinity chromatography, details of which are described elsewhere (Phillips, 1996). […] Reduction of EO9 by recombinant human NQO1 was determined at pH 6.0 and 7.4 by measuring the rate of reduction of cytochrome c was measured at 550 nm on a Beckman DU 650 spectrophotometer according to previously published methods (Phillips, 1996).

histocultures = conditions: cited from earlier work

T1 sequence (P15559 whole entry): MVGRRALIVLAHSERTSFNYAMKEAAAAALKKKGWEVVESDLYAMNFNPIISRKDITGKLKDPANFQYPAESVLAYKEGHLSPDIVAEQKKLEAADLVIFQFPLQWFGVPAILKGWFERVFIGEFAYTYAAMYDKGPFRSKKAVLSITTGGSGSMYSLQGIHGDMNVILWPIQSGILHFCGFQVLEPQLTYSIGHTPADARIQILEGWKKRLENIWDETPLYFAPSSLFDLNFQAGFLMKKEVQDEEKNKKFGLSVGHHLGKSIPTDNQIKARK

Cn1c(/C=C/CO)c(CO)c2c1C(=O)C=C(N1CC1)C2=O [EO9, 5-(1-aziridinyl)-3-(hydroxymethyl)-2-[(E)-3-hydroxyprop-1-enyl]-1-methyl-1H-indole-4,7-dione]
tumor growth delay [1]: significant growth delays
SR = Selectivity Ratio, IC50 at pHe 7.4 divided by IC50 at pHe 6.0 (H460 cells; H460 cells, with or without FAA 2 mM): 6.31
IC50 (H460 cells; pHe 6.0, with or without FAA 2 mM): 9.5 ± 2.6 nM
IC50 (H460 cells; pHe 7.4, with or without FAA 2 mM): 60 ± 8.1 nM
clinical response [2]: three partial remissions
plasma elimination half-life [3]: 10 min
half-life ([4]; pH 5.5): 37 min
half-life ([4]; pH 6): 150 min
ratio of IC50 values for spheroids to monolayers ([5]; HT-29, pHe 6.0): 341
ratio of IC50 values for spheroids to monolayers ([5]; HT-29, pHe 7.4): 202
IC50 ([5]; pHe 6.0, one hour exposure): 9890 ± 890 nM
IC50 ([5]; pHe 7.4, one hour exposure): 24200 ± 3290 nM
cells killed in spheroids ([5]; at higher doses): > 90%
solubility ([6]; tert-butanol formulation vehicle, aqueous with cosolvent or surfactant or cyclodextrin): ≥ 9500 µg/mL
solubility ([6]; water): ~200 µg/mL (≈ 694 µM)
clinical activity [7]: no activity
SR (selectivity ratio) = IC50 at pH 7.4/IC50 at pH 6.0 (EJ138; EJ138): 7.94
IC50 (EJ138; Homo sapiens, EJ138, 1 h, read-out: IC50 pHe 6.0): 39 ± 7 nM
IC50 (EJ138; Homo sapiens, EJ138, 1 h, read-out: IC50 pHe 7.4): 310 ± 95 nM
IC50 (RT112; Homo sapiens, RT-112, 1 h, read-out: IC50 pHe 6.0): 61 ± 13 nM
IC50 (RT112; Homo sapiens, RT-112, 1 h, read-out: IC50 pHe 7.4): 1050 ± 75 nM
SR (selectivity ratio) = IC50 at pH 7.4/IC50 at pH 6.0 (RT112; RT112): 17.21
SR (selectivity ratio) = IC50 at pH 7.4/IC50 at pH 6.0 (H460; H460): 6.31
IC50 (H460; Homo sapiens, NCI-H460, 1 h, read-out: IC50 pHe 6.0): 9.5 ± 2 nM
IC50 (H460; Homo sapiens, NCI-H460, 1 h, read-out: IC50 pHe 7.4): 60 ± 10 nM
SR (selectivity ratio) = IC50 at pH 7.4/IC50 at pH 6.0 (BE; BE): 4.07
IC50 (BE; Homo sapiens, 1 h, read-out: IC50 pHe 6.0): 1300 ± 75 nM
IC50 (BE; Homo sapiens, 1 h, read-out: IC50 pHe 7.4): 5300 ± 169 nM
SR (selectivity ratio) = IC50 at pH 7.4/IC50 at pH 6.0 (A2780; A2780): 3.92
IC50 (A2780; Homo sapiens, A2780, 1 h, read-out: IC50 pHe 6.0): 51 ± 14 nM
IC50 (A2780; Homo sapiens, A2780, 1 h, read-out: IC50 pHe 7.4): 200 ± 50 nM
IC50 (T24/83; Homo sapiens, T24/83, 1 h, read-out: IC50 pHe 6.0): 60 ± 18 nM
IC50 (T24/83; Homo sapiens, T24/83, 1 h, read-out: IC50 pHe 7.4): 290 ± 65 nM
SR (selectivity ratio) = IC50 at pH 7.4/IC50 at pH 6.0 (T24/83; T24/83): 4.83
SR (selectivity ratio) = IC50 at pH 7.4/IC50 at pH 6.0 (HT-29; HT-29): 4.13
IC50 (HT-29; Homo sapiens, HT-29, 1 h, read-out: IC50 pHe 6.0): 29 ± 10 nM
IC50 (HT-29; Homo sapiens, HT-29, 1 h, read-out: IC50 pHe 7.4): 120 ± 53 nM
rate of reduction of EO9 by purified human NQO1 (recombinant human NQO1; pH 6.0): 21.30±1.50 nmol cytochrome c reduced/min/mg protein
specific activity, cytochrome c reduced/min/mg protein (recombinant human NQO1; pH 6.0): 21.30±1.5 pmol cytochrome c reduced/min/mg protein
rate of reduction of EO9 by purified human NQO1 (recombinant human NQO1; pH 7.4): 21.10±2.30 nmol cytochrome c reduced/min/mg protein
specific activity, cytochrome c reduced/min/mg protein (recombinant human NQO1; pH 7.4): 21.10±2.3 pmol cytochrome c reduced/min/mg protein

CO[C@@]12[C@H](COC(N)=O)C3=C(C(=O)C(C)=C(N)C3=O)N1C[C@@H]1N[C@@H]12 [MMC, Mitomycin C, reference compound]
difference in toxicity between physiological and acidic pHe (histocultures): no difference in toxicity
IC50 (EJ138; EJ138, pHe 6.0, one hour exposure, read-out: IC50 pHe 6.0): 1400 ± 250 nM
IC50 (EJ138; EJ138, pHe 7.4, one hour exposure, read-out: IC50 pHe 7.4): 1600 ± 200 nM
IC50 (RT112; RT112, pHe 6.0, one hour exposure, read-out: IC50 pHe 6.0): 2000 ± 500 nM
IC50 (RT112; RT112, pHe 7.4, one hour exposure, read-out: IC50 pHe 7.4): 3350 ± 250 nM
IC50 (H460; H460, pHe 6.0, one hour exposure, read-out: IC50 pHe 6.0): 220 ± 130 nM
IC50 (H460; H460, pHe 7.4, one hour exposure, read-out: IC50 pHe 7.4): 900 ± 200 nM
IC50 (BE; BE, pHe 6.0, one hour exposure, read-out: IC50 pHe 6.0): 4400 ± 215 nM
IC50 (BE; BE, pHe 7.4, one hour exposure, read-out: IC50 pHe 7.4): 7000 ± 192 nM
IC50 (A2780; A2780, pHe 6.0, one hour exposure, read-out: IC50 pHe 6.0): 1400 ± 130 nM
IC50 (A2780; A2780, pHe 7.4, one hour exposure, read-out: IC50 pHe 7.4): 2400 ± 340 nM
IC50 (T24/83; T24/83, pHe 6.0, one hour exposure, read-out: IC50 pHe 6.0): 2100 ± 800 nM
IC50 (T24/83; T24/83, pHe 7.4, one hour exposure, read-out: IC50 pHe 7.4): 2150 ± 93 nM
IC50 (HT-29; HT-29, pHe 6.0, one hour exposure, read-out: IC50 pHe 6.0): 500 ± 240 nM
IC50 (HT-29; HT-29, pHe 7.4, one hour exposure, read-out: IC50 pHe 7.4): 1050 ± 210 nM
